The target in one data set is T1, aldosterone synthase (Rattus norvegicus, UniProt P30099).
T1 construct: The adrenals are decapsulated to obtain the glomerulosa tissue; The tissue is homogenized in a glass homogenizer; from tissue; host or cells: rat adrenal glomerulosa tissue homogenate (900 x g supernatant), sodium-depleted Sprague-Dawley rats
T1 sequence (P30099 35-510): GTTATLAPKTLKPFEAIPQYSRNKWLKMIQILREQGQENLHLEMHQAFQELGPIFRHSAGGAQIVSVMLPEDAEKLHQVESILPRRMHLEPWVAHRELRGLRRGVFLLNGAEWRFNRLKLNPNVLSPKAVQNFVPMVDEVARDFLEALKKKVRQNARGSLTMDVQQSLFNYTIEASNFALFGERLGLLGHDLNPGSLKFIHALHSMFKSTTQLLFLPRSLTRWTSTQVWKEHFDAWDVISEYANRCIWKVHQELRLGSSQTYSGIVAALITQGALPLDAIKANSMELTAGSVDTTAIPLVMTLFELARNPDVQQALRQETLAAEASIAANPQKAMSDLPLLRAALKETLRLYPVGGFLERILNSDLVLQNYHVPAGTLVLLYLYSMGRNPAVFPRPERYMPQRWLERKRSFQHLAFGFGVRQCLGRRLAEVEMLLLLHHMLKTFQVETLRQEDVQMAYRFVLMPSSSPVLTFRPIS
Description: aldosterone synthase inhibitory activity in vitro (rat adrenal glomerulosa homogenate, conversion of [3H]corticosterone). As to conditions: read-out: inhibit the aldosterone synthase activity with an IC50 value. The format is biochemical. From the text:
The aldosterone synthase inhibitory activity in vitro may be determined as follows:
Adult male Sprague-Dawley rats weighing 125-150 g are obtained from Harlan Farms. All animals are caged in pairs and maintained under standard conditions of light and temperature. The animals are placed on a sodium depleted diet (0.01-0.02%) from Harland Teklad, Madison Wis. (cat# TD90228) and maintained on normal drinking water ad libitum. The animals are maintained on this diet for two to four weeks prior to harvesting the adrenal glomerulosa cells. The rats are killed by CO2 inhalation, and the adrenals are immediately removed and placed in the same ice-cold buffer used during homogenization and assay of the enzyme preparation. The adrenals are decapsulated to obtain the glomerulosa tissue. The tissue is homogenized in a glass homogenizer containing Tris assay buffer (8.5 mM MgCl2, 2.7 mM CaCl2, 3.13 mM KCl, 7.59 mM NaCl, 0.1% TEA and 50 mM Tris HCl adjusted to pH 7.4). The homogenate is diluted so that 37.5 mg of glomerulosa tissue is in each mL of buffer. […] The plates are scanned for radioactivity with a Bioscan System 200 Imaging Scanner (Bioscan, Ish. DC). The two products of the aldosterone synthase, 18-OH-corticosterone and aldosterone are scraped and counted in a liquid scintillation counter (Beckman LS6000TA, Beckman Instr., Palo Alto, Calif.).
The IC50s are determined from a logit-log plot (pseudo-Hill plot) according to the equation (see Pratt and Taylor, Eds, “Principles of Drug Action”, Churchill Livingstone Inc, NY (1990)): log P/(100−P)=n log[I][…] where P is the percent competition of specific binding in the presence of a given concentration of inhibitor (I). The slope (Hill Coefficient) and x intercept (IC50) are determined by linear regression of the experimental data. The Km(app) is calculated by a computer program according to the Hanes equation (see Cornish-Bowden, Ed., “Principles of Enzyme Kinetics”, Butterworth & Co., Boston, Mass. (1976)): s/v=Km/V+s/V where Km=Michaelis constant, V=maximum velocity, s=substrate concentration, v=velocity.

The term IC50 denotes the concentration at which inhibition is half-maximal. As usually defined, the melting point is the temperature, or range, at which the solid turns liquid.

The molecule `N#Cc1ccc(C2C(=O)N(CC3CC3)Cc3cncn32)cc1` (centres unmarked) [Example 1, 4-(7-Cyclopropylmethyl-6-oxo-5,6,7,8-tetrahydro-imidazo[1,5-a]pyrazin-5-yl)-benzonitrile] came in with a melting point of 146 to 147 °C. The IC50 on aldosterone synthase was ~12 nM.

Turning to `N#Cc1ccc(C2C(=O)N(Cc3ccccc3)Cc3cncn32)cc1` (centres unmarked) [Example 3, 4-(7-Benzyl-6-oxo-5,6,7,8-tetrahydro-imidazo[1,5-a]pyrazin-5-yl)-benzonitrile], the melting point lay in the range of 163 to 165 °C. Further, the IC50 at aldosterone synthase is ~4 nM.

The molecule `Cl.O=C1C(c2cccc(Br)c2)n2cncc2CN1CC1CC1` (centres unmarked) [Example 32, 5-(3-Bromo-phenyl)-7-cyclopropylmethyl-7,8-dihydro-imidazo[1,5-a]pyrazin-6-one hydrochloride] had a melting point of 249 to 250 °C. Besides, the IC50 on aldosterone synthase is ~9 nM.

The molecule `O=C1C(c2cccc(Br)c2)n2cncc2CN1Cc1ccccn1` (centres unmarked) [Example 53, 5-(3-Bromo-phenyl)-7-pyridin-2-ylmethyl-7,8-dihydro-imidazo[1,5-a]pyrazin-6-one] showed a melting point of 52 to 56 °C.

For `O=C1C(c2cccc(Br)c2)n2cncc2CN1Cc1ccncc1` (centres unmarked) [Example 54, 5-(3-Bromo-phenyl)-7-pyridin-4-ylmethyl-7,8-dihydro-imidazo[1,5-a]pyrazin-6-one], the melting point was 50 to 54 °C.

In turn, `Cc1ccc(CN2Cc3cncn3CC2=O)cc1` [Example 64, 7-(4-Methyl-benzyl)-7,8-dihydro-imidazo[1,5-a]pyrazin-6-one] came in with a melting point of 105 to 108 °C.

Consider `O=C1Cn2cncc2CN1Cc1ccc(F)cc1` [Example 65, 7-(4-Fluoro-benzyl)-7,8-dihydro-imidazo[1,5-a]pyrazin-6-one], for which the melting point lay within 112 to 114 °C.

In turn, `N#Cc1cccc(C2C(=O)N(Cc3ccccc3)Cc3cncn32)c1` (centres unmarked) [Example 66] registered a melting point of 163 to 165 °C.

`COc1ccc(CN2Cc3cncn3C(c3ccc(-c4ccsc4)cc3)C2=O)cc1` (centres unmarked) [Example 75, 7-(4-Methoxy-benzyl)-5-(4-thiophen3-yl-phenyl)-7,8-dihydro-imidazo[1,5-a]pyrazin-6-one]: the melting point fell in the range of 162 to 164 °C.

Regarding `O=C1C(c2ccc(-c3ccccc3)cc2)n2cncc2CN1Cc1ccc(F)cc1` (centres unmarked) [Example 78, 5-Biphenyl-4-yl-7-(4-fluoro-benzyl)-7,8-dihydro-imidazo[1,5-a]pyrazin-6-one], the melting point was 189 to 190 °C.

Consider `CC1(c2ccc(C#N)cc2)C(=O)N(Cc2ccc(F)cc2)Cc2cncn21` (centres unmarked) [Example 85, 4-[7-(4-Fluoro-benzyl)-5-methyl-6-oxo-5,6,7,8-tetrahydro-imidazo[1,5-a]pyrazin-5-yl]-benzonitrile], for which the melting point fell in the range of 66 to 70 °C.

`C[C@@H](c1ccc(F)cc1)N1Cc2cncn2C(C)(c2ccc(C#N)cc2)C1=O` (some centres unmarked) [Example 86, 4(7-[(s)-1-(4-Fluoro-phenyl)-ethyl]-5-methyl-6-oxo-5,6,7,8-tetrahydro-imidazo[1,5-a]pyrazin-5-yl]-benzonitrile]: the melting point lay in the range of 78 to 82 °C.

Regarding `O=C1N(Cc2ccc(F)cc2)Cc2cncn2C1(Cc1ccccc1)c1ccc(Br)cc1` (centres unmarked) [Example 87, 5-Benzyl-5-(4-bromo-phenyl)-7-(4-fluoro-benzyl)-7,8-dihydro-imidazo[1,5-a]pyrazin-6-one], the melting point was in the range of 166 to 168 °C.

As to `N#Cc1ccc(C2(Cc3ccccc3)C(=O)N(Cc3ccccc3)Cc3cncn32)cc1` (centres unmarked) [Example 88, 4-(5,7-Dibenzyl-6-oxo-5,6,7,8-tetrahydro-imidazol[1,5-a]pyrazin-5-yl)-benzonitrile], the melting point lay in the range of 246 to 248 °C.

In turn, `N#Cc1ccc(C2(Cc3ccccc3)C(=O)N(CC3CC3)Cc3cncn32)cc1` (centres unmarked) [Example 89, 4-(5-Benzyl-7-cyclopropylmethyl-6-oxo-5,6,7,8-tetrahydro-imidazo[1,5-a]pyrazin-5-yl)-benzonitrile] returned a melting point of 156 to 158 °C.

`N#Cc1ccc(C2CC(=O)N(Cc3ccccc3)Cc3cncn32)cc1` (centres unmarked) [Example 92, 4-(8-Benzyl-7-oxo-6,7,8,9-tetrahydro-5H-imidazo[1,5-a][1,4]diazepin-5-yl)-benzonitrile] gave a melting point of 65 °C.

With `N#Cc1ccc(C2CC(=O)N(CC3CC3)Cc3cncn32)cc1` (centres unmarked) [Example 93, 4-(8-Cyclopropylmethyl-7-oxo-6,7,8,9-tetrahydro-5H-imidazo[1,5-a][1,4]diazepin-5-yl)-benzonitrile], the melting point fell in the range of 178 to 180 °C.
